The values below come from US9963448B2, “Bicyclic inhibitors of PAD4” (Padlock Therapeutics, Inc., priority 2015, dated 2018).

The target of one test is mPAD4 (Mus musculus, UniProt Q9Z183). The test is described as follows: mPAD4 RFMS PAD4 inhibition assay.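 On mPAD4 RFMS pIC50: grade E means pIC50 at most 4 and F means pIC50 4.0 to 5.0.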 Type of test: biochemical. The settings on record: mPAD4, RFMS readout. Here is the method:
(§1) Compounds of the present invention were assayed as inhibitors of PAD4 using the assay protocol described below.
(§2) Compound stock solutions were stored at RT. […] Final assay conditions were as follows:
(§3) Total incubation time: 65 mins at 37° C.
(§4) Stop solution: 40 μl 5% TCA in ACN
(§5) The compound numbers correspond to the compound numbers in Table 1. […] The term pIC50=−log(IC50). […] “NA” stands for “not assayed.”

The target in the next test is hPAD4 (Homo sapiens, UniProt Q9UM07). The test is described as follows: hPAD4 RFMS (RapidFire mass spectrometry) PAD4 inhibition assay.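 On hPAD4 RFMS pIC50: grade E means pIC50 at most 4 and F means pIC50 4.0 to 5.0.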 The settings on record: hPAD4 enzyme, RFMS readout. Type of test: biochemical. Here is the method:
as §1, §2, §3, §4, §5

[1] abbreviates: pIC50=−log(IC50), read-out: mPAD4 RFMS pIC50 (converted).
The mark [2] stands for this setting: pIC50=−log(IC50), read-out: hPAD4 RFMS pIC50 (converted).

Where a name gives a salt, the structure may show the parent alone. Read-outs that look alike come from different tables or passages of the source.

Chain of mPAD4 (Q9Z183 whole entry): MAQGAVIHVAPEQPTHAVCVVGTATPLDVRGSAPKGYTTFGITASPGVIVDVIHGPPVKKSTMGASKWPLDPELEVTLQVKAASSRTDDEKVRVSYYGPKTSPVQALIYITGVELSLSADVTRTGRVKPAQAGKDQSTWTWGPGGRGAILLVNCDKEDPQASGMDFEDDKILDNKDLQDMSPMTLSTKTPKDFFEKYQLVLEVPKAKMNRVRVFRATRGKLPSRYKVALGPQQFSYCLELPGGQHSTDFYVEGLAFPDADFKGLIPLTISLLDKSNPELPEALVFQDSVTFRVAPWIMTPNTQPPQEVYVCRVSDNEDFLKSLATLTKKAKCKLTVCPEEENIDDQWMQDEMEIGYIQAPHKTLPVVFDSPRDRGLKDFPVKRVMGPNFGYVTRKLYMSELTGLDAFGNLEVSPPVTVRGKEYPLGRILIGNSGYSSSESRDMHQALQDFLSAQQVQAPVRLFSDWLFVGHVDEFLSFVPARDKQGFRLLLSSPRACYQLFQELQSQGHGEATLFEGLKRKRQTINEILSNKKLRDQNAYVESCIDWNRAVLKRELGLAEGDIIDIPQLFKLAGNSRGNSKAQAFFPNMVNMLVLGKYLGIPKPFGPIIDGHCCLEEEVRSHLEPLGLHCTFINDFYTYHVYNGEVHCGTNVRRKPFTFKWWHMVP
Chain of hPAD4 (Q9UM07 whole entry): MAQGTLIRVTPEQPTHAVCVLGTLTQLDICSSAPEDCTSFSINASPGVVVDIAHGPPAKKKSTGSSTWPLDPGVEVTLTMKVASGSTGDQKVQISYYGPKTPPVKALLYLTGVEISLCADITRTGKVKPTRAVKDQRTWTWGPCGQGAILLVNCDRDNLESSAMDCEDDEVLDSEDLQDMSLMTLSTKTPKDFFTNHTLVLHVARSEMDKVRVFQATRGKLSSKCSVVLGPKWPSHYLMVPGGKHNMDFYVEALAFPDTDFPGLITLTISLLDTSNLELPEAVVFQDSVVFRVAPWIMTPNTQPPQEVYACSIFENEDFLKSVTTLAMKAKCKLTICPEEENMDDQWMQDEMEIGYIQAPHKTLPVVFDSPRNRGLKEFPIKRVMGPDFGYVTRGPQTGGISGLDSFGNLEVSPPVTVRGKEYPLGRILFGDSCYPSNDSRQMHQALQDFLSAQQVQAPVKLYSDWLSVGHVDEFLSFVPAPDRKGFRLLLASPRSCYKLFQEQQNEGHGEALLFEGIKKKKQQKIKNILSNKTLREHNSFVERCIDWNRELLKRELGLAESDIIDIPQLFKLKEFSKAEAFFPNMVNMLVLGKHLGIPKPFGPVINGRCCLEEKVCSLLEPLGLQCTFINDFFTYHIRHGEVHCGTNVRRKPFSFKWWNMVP

As for `Cn1c(-c2cc3cccnc3n2CC2CC2)nc2cc(C(=O)N3CC[C@@H](F)[C@H](N)C3)ccc21` [Compound I-55], the IC50 on mPAD4 (setting [1]) is 10 to 100 µM; at mPAD4 (read-out: mPAD4 RFMS IC50), greater than 10 µM; on hPAD4 (setting [2]), 10 to 100 µM; on hPAD4 (read-out: hPAD4 RFMS IC50) it was greater than 10 µM.
For `COc1cc(C(=O)N2C[C@H](N)CC[C@@H]2CO)cc2nc(-c3cc4cccnc4n3CC3CC3)n(C)c12` (racemic) [Compound I-221, rac-[(2R,5R)-5-amino-1-{2-[1-(cyclopropylmethyl)-1H-pyrrolo[2,3-b]pyridin-2-yl]-7-methoxy-1-methyl-1H-1,3-benzodiazole-5-carbonyl}piperidin-2-yl]methanol], the IC50 at mPAD4 (setting [1]) is 1 to 10 µM; at mPAD4 (read-out: mPAD4 RFMS IC50), 1 to 5 µM; on hPAD4 (setting [2]), 10 to 100 µM; on hPAD4 (read-out: hPAD4 RFMS IC50), greater than 10 µM.
The matching figures for `COc1cc(C(=O)N2CC(N)CC(C#N)C2)cc2nc(-c3cc4cccnc4n3CC3CC3)n(C)c12` (racemic) [Compound I-82, 5-Amino-1-{2-[1-(cyclopropylmethyl)-1H-pyrrolo[2,3-b]pyridin-2-yl]-7-methoxy-1-methyl-1H-1,3-benzodiazole-5-carbonyl}piperidine-3-carbonitrile]: 10 to 100 µM, greater than 10 µM, 10 to 100 µM and greater than 10 µM.
Consider `Cn1c(-c2cc3cccnc3n2CC2CC2)nc2cc(C(=O)N3CCC[C@@H](N)C3)cc(S(C)(=O)=O)c21` [Compound I-131, (3R)-1-{2-[1-(cyclopropylmethyl)-1H-pyrrolo[2,3-b]pyridin-2-yl]-7-methanesulfonyl-1-methyl-1H-1,3-benzodiazole-5-carbonyl}piperidin-3-amine], for which the IC50 at mPAD4 (setting [1]) was 10 to 100 µM; on mPAD4 (read-out: mPAD4 RFMS IC50) it was greater than 10 µM; at hPAD4 (setting [2]) it was 1 to 10 µM; on hPAD4 (read-out: hPAD4 RFMS IC50) it was 5 to 10 µM.
As to `COc1cc(C(=O)N2CC3CCC2C(N)C3)cc2nc(-c3cc4cccnc4n3CC3CC3)n(C)c12` (stereo not drawn) [Compound I-115], the IC50 at mPAD4 (setting [1]), at mPAD4 (read-out: mPAD4 RFMS IC50), on hPAD4 (setting [2]) and at hPAD4 (read-out: hPAD4 RFMS IC50) was less than 1 µM each time.
Turning to `Cn1c(-c2cc3cccnc3n2CC2CC2)nc2cc(C(=O)N3C[C@H](N)C[C@@H](F)C3)cc(OC(F)F)c21` [Compound I-98], the IC50 at mPAD4 (setting [1]), at mPAD4 (read-out: mPAD4 RFMS IC50), on hPAD4 (setting [2]) and on hPAD4 (read-out: hPAD4 RFMS IC50) was less than 1 µM in each case.
As to `CCn1c(-c2nc3cc(C(=O)N4CCC[C@@H](N)C4)cc(OC)c3n2CCOC)cc2cccnc21` [Compound I-176], the IC50 at mPAD4 (setting [1]) is 1 to 10 µM; at mPAD4 (read-out: mPAD4 RFMS IC50), 1 to 5 µM; on hPAD4 (setting [2]) it was 1 to 10 µM; on hPAD4 (read-out: hPAD4 RFMS IC50), 1 to 5 µM.
For the compound `CCCn1c(-c2nc3cc(C(=O)N4C[C@H]5CC[C@@H]4[C@@H]5N)cc(OC)c3n2C)cc2cccnc21` [Compound I-154], the IC50 at mPAD4 (setting [1]), at mPAD4 (read-out: mPAD4 RFMS IC50), on hPAD4 (setting [2]) and on hPAD4 (read-out: hPAD4 RFMS IC50) was less than 1 µM throughout.
On to `CCn1c(-c2nc3cc(C(=O)N4CCC[C@@H](N)C4)cc(F)c3n2CC)cc2cccnc21` [Compound I-151], for which the IC50 at mPAD4 (setting [1]) is 1 to 10 µM; on mPAD4 (read-out: mPAD4 RFMS IC50), 5 to 10 µM; at hPAD4 (setting [2]), 1 to 10 µM; at hPAD4 (read-out: hPAD4 RFMS IC50), 1 to 5 µM.
As to `CCn1c(-c2cc3ccc(OC)nc3n2CC2CC2)nc2cc(C(=O)N3CCC[C@@H](N)C3)cc(OC)c21` [Compound I-106], the IC50 on mPAD4 (setting [1]), on mPAD4 (read-out: mPAD4 RFMS IC50), on hPAD4 (setting [2]) and at hPAD4 (read-out: hPAD4 RFMS IC50) was less than 1 µM throughout.
For the compound `COc1cc2c(cc1C(=O)N1CCC[C@@H](N)C1)nc(-c1cc3cccnc3n1CC1CC1)n2C` [Compound I-68, (3R)-1-{2-[1-(cyclopropylmethyl)-1H-pyrrolo[2,3-b]pyridin-2-yl]-6-methoxy-1-methyl-1H-1,3-benzodiazole-5-carbonyl}piperidin-3-amine hydrochloride], the IC50 was 10 to 100 µM on mPAD4 (setting [1]), greater than 10 µM on mPAD4 (read-out: mPAD4 RFMS IC50), 1 to 10 µM on hPAD4 (setting [2]) and 5 to 10 µM on hPAD4 (read-out: hPAD4 RFMS IC50).
The matching figures for `COCCn1c(-c2cc3cccnc3n2CC2CC2)nc2cc(C(=O)N3CCC[C@@H](N)C3)cc(OC)c21` [Compound I-177]: less than 1 µM, less than 1 µM, 1 to 10 µM and 1 to 5 µM.
`COc1cc(C(=O)N2C[C@H]3CC[C@@H]2[C@@H]3N)cc2nc(-c3cc4cc(F)cnc4n3CC3CC3)n(C)c12` [Compound I-222]: the IC50 on mPAD4 (setting [1]), on mPAD4 (read-out: mPAD4 RFMS IC50), at hPAD4 (setting [2]) and on hPAD4 (read-out: hPAD4 RFMS IC50) was less than 1 µM each time.
As for `Cn1c(-c2cc3cccnc3n2CC2CC2)nc2cc(C(=O)N3CCCC4NCCC43)ccc21` (stereo not drawn) [Compound I-52], the IC50 was 10 to 100 µM at mPAD4 (setting [1]), greater than 10 µM at mPAD4 (read-out: mPAD4 RFMS IC50), 10 to 100 µM on hPAD4 (setting [2]) and greater than 10 µM at hPAD4 (read-out: hPAD4 RFMS IC50).
Take `COc1cc(C(=O)N2C[C@@H](N)CC[C@H]2CO)cc2nc(-c3cc4cccnc4n3CC3CC3)n(C)c12` (single isomer, unassigned) [Compound I-229]: the IC50 on mPAD4 (setting [1]) was 1 to 10 µM; at mPAD4 (read-out: mPAD4 RFMS IC50), 5 to 10 µM; on hPAD4 (setting [2]) it was 10 to 100 µM; at hPAD4 (read-out: hPAD4 RFMS IC50), greater than 10 µM.
The matching figures for `[2H]C([2H])([2H])OC1(C)CC(Cn2c(-c3cc4cccnc4n3CC3CC3)nc3cc(C(=O)N4C[C@H]5CC[C@@H]4[C@@H]5N)cc(OC)c32)C1` (stereo partly drawn) [Compound I-238, (1R,4R,7R)-2-{2-[1-(cyclopropylmethyl)-1H-pyrrolo[2,3-b]pyridin-2-yl]-7-methoxy-1-{[3-(^2H3)methoxy-3-methylcyclobutyl]methyl}-1H-1,3-benzodiazole-5-carbonyl}-2-azabicyclo[2.2.1]heptan-7-amine]: less than 1 µM, less than 1 µM, less than 1 µM and less than 1 µM.
The matching figures for `COc1cc(C(=O)N2CCC(OC(F)F)C(N)C2)cc2nc(-c3cc4cccnc4n3CC3CC3)n(C)c12` (racemic) [Compound I-86, rac-(3R,4S)-1-{2-[1-(cyclopropylmethyl)-1H-pyrrolo[2,3-b]pyridin-2-yl]-7-methoxy-1-methyl-1H-1,3-benzodiazole-5-carbonyl}-4-(difluoromethoxy)piperidin-3-amine]: less than 1 µM, less than 1 µM, less than 1 µM and less than 1 µM.
Consider `COc1cc(C(=O)N2CC3CCC2[C@@H]3N)cc2nc(-c3cc4cccnc4n3CC3CC3)n(C)c12` (stereo partly drawn) [Compound I-30], for which the IC50 at mPAD4 (setting [1]) is 10 to 100 µM; on mPAD4 (read-out: mPAD4 RFMS IC50), greater than 10 µM; at hPAD4 (setting [2]) it was 10 to 100 µM; at hPAD4 (read-out: hPAD4 RFMS IC50), greater than 10 µM.
On to `COc1cc(C(=O)N2C[C@H]3CC[C@@H]2[C@@H]3N)cc2nc(-c3cc4ccc(C)nc4n3CC3CC3)n(C)c12` [Compound I-198], for which the IC50 at mPAD4 (setting [1]), at mPAD4 (read-out: mPAD4 RFMS IC50), on hPAD4 (setting [2]) and on hPAD4 (read-out: hPAD4 RFMS IC50) was less than 1 µM each time.
`Cn1c(-c2cc3cncnc3n2CC2CC2)nc2cc(C(=O)N3CCC4CCNC4C3)ccc21` (stereo not drawn) [Compound I-9, 2-[7-(Cyclopropylmethyl)-7H-pyrrolo[2,3-d]pyrimidin-6-yl]-1-methyl-5-{octahydro-1H-pyrrolo[2,3-c]pyridine-6-carbonyl}-1H-1,3-benzodiazole]: the IC50 on mPAD4 (setting [1]) is 10 to 100 µM; on mPAD4 (read-out: mPAD4 RFMS IC50) it was greater than 10 µM; at hPAD4 (setting [2]), 1 to 10 µM; on hPAD4 (read-out: hPAD4 RFMS IC50), 5 to 10 µM.
The matching figures for `COc1cc(C(=O)N2C[C@H]3CC[C@@H]2[C@@H]3N)cc2nc(-c3cc4cnc(C)nc4n3CC3CC3)n(C)c12` [Compound I-202, (1R,4R,7R)-2-{2-[7-(Cyclopropylmethyl)-2-methyl-7H-pyrrolo[2,3-d]pyrimidin-6-yl]-7-methoxy-1-methyl-1H-1,3-benzodiazole-5-carbonyl}-2-azabicyclo[2.2.1]heptan-7-amine]: 1 to 10 µM, 1 to 5 µM, less than 1 µM and less than 1 µM.
For the compound `COc1cc(C(=O)N2CCC[C@@H](N)C2)cc2nc(-c3cc4cc(C#N)cnc4n3CC3CC3)n(C)c12` [Compound I-132], the IC50 on mPAD4 (setting [1]) was 1 to 10 µM; at mPAD4 (read-out: mPAD4 RFMS IC50) it was 1 to 5 µM; at hPAD4 (setting [2]), less than 1 µM; at hPAD4 (read-out: hPAD4 RFMS IC50), less than 1 µM.
As for `COc1cc(C(=O)N2C[C@@H]3CC[C@H]2[C@H](N)C3)cc2nc(-c3cc4cccnc4n3CC3CC3)n(C)c12` [Compound I-215], at mPAD4 (pIC50=−log(IC50)), the “mPAD4 RFMS pIC50” value is “E/F”. Further, the IC50 at mPAD4 (read-out: mPAD4 RFMS IC50) and on hPAD4 (read-out: hPAD4 RFMS IC50) was greater than 10 µM each time. Moreover, on hPAD4 (pIC50=−log(IC50)), the “hPAD4 RFMS pIC50” value is recorded as “E/F”.
Take `COc1cc(C(=O)N2CC[C@@H](OC)[C@@H](N)C2)cc2nc(-c3cc4cccnc4n3CC3CC3)n(C)c12` [Compound I-121]: the IC50 on mPAD4 (setting [1]), at mPAD4 (read-out: mPAD4 RFMS IC50), at hPAD4 (setting [2]) and at hPAD4 (read-out: hPAD4 RFMS IC50) was less than 1 µM throughout.
As for `COCCn1c(-c2nc3cc(C(=O)N4C[C@@H](N)CC[C@H]4C)cc(OC)c3n2C)cc2cccnc21` [Compound I-190], the IC50 on mPAD4 (setting [1]) was 1 to 10 µM; at mPAD4 (read-out: mPAD4 RFMS IC50), 1 to 5 µM; on hPAD4 (setting [2]) it was 1 to 10 µM; at hPAD4 (read-out: hPAD4 RFMS IC50) it was 1 to 5 µM.
For `COc1cc(C(=O)N2CC[C@H]3OCCN[C@H]3C2)cc2nc(-c3cc4cccnc4n3CC3CC3)n(C)c12` [Compound I-28], the IC50 on mPAD4 (setting [1]), at mPAD4 (read-out: mPAD4 RFMS IC50), at hPAD4 (setting [2]) and at hPAD4 (read-out: hPAD4 RFMS IC50) was less than 1 µM throughout.
`COc1cc(C(=O)N2C[C@@H]3[C@@H](N)[C@@H]3C2)cc2nc(-c3cc4cccnc4n3CC3CC3)n(C)c12` [Compound I-76]: the IC50 was 10 to 100 µM at mPAD4 (setting [1]), greater than 10 µM on mPAD4 (read-out: mPAD4 RFMS IC50), 10 to 100 µM on hPAD4 (setting [2]) and greater than 10 µM on hPAD4 (read-out: hPAD4 RFMS IC50).
